IC50 data for 48 compounds are collected here from patent US20250154105A1, “POLYCYCLIC COMPOUND AND USE THEREOF” (TYK MEDICINES, INC., priority 2021, published 2025).

Structures are written as SMILES.

Assay [1] has as its system YAP-TEAD. Nature of the assay: YAP-TEAD inhibitor activity by Nano luciferase method (8xGTiiC-nLuc reporter in 293T cells). The conditions noted are these: Homo sapiens, HEK-293T, 48 hours incubation, read-out: Nano-luciferase detection (IC50). Type of assay: cell-based. The essentials:
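293T cells transiently transfected with pGL3B-8xGTiiC-nLuc-CMV-fLuc, seeded 2000 cells/well, then treated 48 h at 37 °C with compounds in 1:3.16 dilution series (top 10,000 nM). Nano luciferase signal read after cell lysis; IC50 from percent of 0 nM control.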

Assay [2] relates to human pleural mesothelioma cells NCI-H226. Nature of the assay: Cell anti-proliferation experiment (CCK8), NCI-H226. Type of assay: cell-based. The essentials:
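Viability was measured by CCK-8 (3 h, A450) after 3-day treatment with 0.15–333.33 nM compound in 0.1% DMSO medium. Curve-fitted IC50 was based on viability normalised to no-drug and cell-free controls.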

On to `C[C@H](NC(=O)c1ccc2c(c1)c1csc(Cl)c1c(=O)n2-c1ccc(C(F)(F)F)cc1)c1ccccn1` [Example T-300], for which the IC50 in assay [1] and in assay [2] was no more than 1000 nM each time.
Consider `C[C@H](NC(=O)c1ccc2c(c1)c1c(Cl)scc1c(=O)n2-c1ccc(C(F)(F)F)cc1)c1ccccn1` [Example T-301], for which the IC50 in assay [1] and in assay [2] was no more than 1000 nM throughout.
On to `C[C@H](NC(=O)c1ccc2c(c1)c1c(c(=O)n2-c2ccc(C(F)(F)F)cc2)CCCC1F)c1ccccn1` (stereo partly drawn) [Example T-302], for which the half-inhibitory concentration (IC50) in assay [1] and in assay [2] was no more than 1000 nM throughout.
For `C[C@H](NC(=O)c1ccc2c(c1)c1c(c(=O)n2-c2ccc(C(F)(F)F)cc2)CCC(F)C1)c1ccccn1` (stereo partly drawn) [Example T-303], the IC50 in assay [1] and in assay [2] was no more than 1000 nM each time.
In the case of `C[C@H](NC(=O)c1ccc2c(c1)c1c(c(=O)n2-c2ccc(C(F)(F)F)cc2)CCCC1(F)F)c1ccccn1` [Example T-306], the IC50 in assay [1] and in assay [2] was no more than 1000 nM each time.
`C[C@H](NC(=O)c1ccc2c(c1)c1c(c(=O)n2-c2ccc(C(F)(F)F)cc2)CCC(F)(F)C1)c1ccccn1` [Example T-307]: the half-maximal inhibitory concentration (IC50) in assay [1] and in assay [2] was no more than 1000 nM each time.
Consider `C[C@H](NC(=O)c1ccc2c(c1)c1cc(Cl)ccc1c(=O)n2-c1ccc(C(F)(F)F)cc1)c1ccccn1` [Example T-311], for which the concentration for half-maximal inhibition (IC50) in assay [1] and in assay [2] was no more than 1000 nM in each case.
As for `COc1ccc2c(=O)n(-c3ccc(C(F)(F)F)cc3)c3ccc(C(=O)N[C@@H](C)c4ccccn4)cc3c2c1` [Example T-315], the IC50 in assay [1] and in assay [2] was no more than 1000 nM throughout.
For `C[C@H](NC(=O)c1ccc2c(c1)c1c(C#N)cccc1c(=O)n2-c1ccc(C(F)(F)F)cc1)c1ccccn1` [Example T-318], the IC50 in assay [1] and in assay [2] was no more than 1000 nM in each case.
In the case of `C[C@H](NC(=O)c1ccc2c(c1)c1cc(C#N)ccc1c(=O)n2-c1ccc(C(F)(F)F)cc1)c1ccccn1` [Example T-319], the IC50 in assay [1] and in assay [2] was no more than 1000 nM each time.
Take `C[C@H](NC(=O)c1ccc2c(c1)c1ccc(C#N)cc1c(=O)n2-c1ccc(C(F)(F)F)cc1)c1ccccn1` [Example T-320]: the half-maximal inhibitory concentration (IC50) in assay [1] and in assay [2] was no more than 1000 nM throughout.
For `C[C@H](NC(=O)c1ccc2c(c1)c1cccc(C#N)c1c(=O)n2-c1ccc(C(F)(F)F)cc1)c1ccccn1` [Example T-321], the IC50 in assay [1] and in assay [2] was no more than 1000 nM throughout.
In the case of `CNS(=O)(=O)c1ccc2c(c1)c1nn(C)cc1c(=O)n2-c1cc(F)cc(F)c1` [Example T-322], the half-inhibitory concentration (IC50) in assay [1] and in assay [2] was no more than 1000 nM in each case.
Take `C=C1c2cn(C)nc2-c2cc(C(=O)N[C@@H](C)c3ccccn3)ccc2N1c1ccc(C(F)(F)F)cc1` [Example T-324]: the IC50 in assay [1] and in assay [2] was no more than 1000 nM throughout.
For the compound `C[C@H](NC(=O)c1ccc2c(c1)-c1nn(C)cc1[C@@H](C)N2c1ccc(C(F)(F)F)cc1)c1ccccn1` [Example T-326], the 50% inhibitory concentration (IC50) in assay [1] and in assay [2] was no more than 1000 nM each time.
On to `C[C@H](NC(=O)c1ccc2c(c1)-c1nn(C)cc1[C@H](C)N2c1ccc(C(F)(F)F)cc1)c1cccc(N)n1` [Example T-327], for which the IC50 in assay [1] and in assay [2] was no more than 1000 nM each time.
`C[C@H](NC(=O)c1ccc2c(c1)c1csnc1c(=O)n2-c1ccc(C(F)(F)F)cc1)c1ccccn1` [Example T-328]: the half-inhibitory concentration (IC50) in assay [1] and in assay [2] was no more than 1000 nM each time.
In the case of `C[C@H](NC(=O)c1ccc2c(c1)c1nscc1c(=O)n2-c1ccc(C(F)(F)F)cc1)c1ccccn1` [Example T-329], the IC50 in assay [1] and in assay [2] was no more than 1000 nM each time.
Take `C[C@H](NC(=O)c1ccc2c(c1)c1ncsc1c(=O)n2-c1ccc(C(F)(F)F)cc1)c1ccccn1` [Example T-330]: the IC50 in assay [1] and in assay [2] was no more than 1000 nM each time.
On to `C[C@H](NC(=O)c1ccc2c(c1)c1scnc1c(=O)n2-c1ccc(C(F)(F)F)cc1)c1ccccn1` [Example T-331], for which the concentration for half-maximal inhibition (IC50) in assay [1] and in assay [2] was no more than 1000 nM each time.
As for `C[C@H](NC(=O)c1ccc2c(c1)c1ncncc1c(=O)n2-c1ccc(C(F)(F)F)cc1)c1ccccn1` [Example T-332], the IC50 in assay [1] and in assay [2] was no more than 1000 nM in each case.
As to `C[C@H](NC(=O)c1ccc2c(c1)c1cncnc1c(=O)n2-c1ccc(C(F)(F)F)cc1)c1ccccn1` [Example T-333], the concentration for half-maximal inhibition (IC50) in assay [1] and in assay [2] was no more than 1000 nM in each case.
As for `C[C@H](NC(=O)c1ccc2c(c1)c1nnccc1c(=O)n2-c1ccc(C(F)(F)F)cc1)c1ccccn1` [Example T-334], the concentration for half-maximal inhibition (IC50) in assay [1] and in assay [2] was no more than 1000 nM in each case.
Consider `C[C@H](NC(=O)c1ccc2c(c1)c1cnncc1c(=O)n2-c1ccc(C(F)(F)F)cc1)c1ccccn1` [Example T-335], for which the half-maximal inhibitory concentration (IC50) in assay [1] and in assay [2] was no more than 1000 nM throughout.
In the case of `C[C@H](NC(=O)c1ccc2c(c1)c1ccnnc1c(=O)n2-c1ccc(C(F)(F)F)cc1)c1ccccn1` [Example T-336], the IC50 in assay [1] and in assay [2] was no more than 1000 nM throughout.
For the compound `C[C@H](NC(=O)c1ccc2c(c1)c1nccnc1c(=O)n2-c1ccc(C(F)(F)F)cc1)c1ccccn1` [Example T-337], the IC50 in assay [1] and in assay [2] was no more than 1000 nM each time.
Consider `Cc1scc2c(=O)n(-c3ccc(C(F)(F)F)cc3)c3ncc(C(=O)N[C@@H](C)c4ccccn4)cc3c12` [Example T-372], for which the IC50 in assay [1] and in assay [2] was 1000 to 5000 nM in each case.
`Cc1scc2c1c(=O)n(-c1ccc(C(F)(F)F)cc1)c1ncc(C(=O)N[C@@H](C)c3ccccn3)cc21` [Example T-373]: the IC50 in assay [1] and in assay [2] was 1000 to 5000 nM each time.
Turning to `C[C@H](NC(=O)c1cnc2c(c1)c1cocc1c(=O)n2-c1ccc(C(F)(F)F)cc1)c1ccccn1` [Example T-374], the IC50 in assay [1] and in assay [2] was no more than 1000 nM in each case.
Consider `Cc1occ2c(=O)n(-c3ccc(C(F)(F)F)cc3)c3ncc(C(=O)N[C@@H](C)c4ccccn4)cc3c12` [Example T-375], for which the IC50 in assay [1] and in assay [2] was no more than 1000 nM throughout.
Consider `Cc1occ2c1c(=O)n(-c1ccc(C(F)(F)F)cc1)c1ncc(C(=O)N[C@@H](C)c3ccccn3)cc21` [Example T-376], for which the half-maximal inhibitory concentration (IC50) in assay [1] and in assay [2] was no more than 1000 nM each time.
For the compound `C[C@H](NC(=O)c1cnc2c(c1)c1sccc1c(=O)n2-c1ccc(C(F)(F)F)cc1)c1ccccn1` [Example T-377], the 50% inhibitory concentration (IC50) in assay [1] and in assay [2] was no more than 1000 nM throughout.
For the compound `C[C@H](NC(=O)c1cnc2c(c1)c1ccsc1c(=O)n2-c1ccc(C(F)(F)F)cc1)c1ccccn1` [Example T-378], the IC50 in assay [1] and in assay [2] was no more than 1000 nM in each case.
Regarding `C[C@H](NC(=O)c1ccc2c(n1)c1cscc1c(=O)n2-c1ccc(C(F)(F)F)cc1)c1ccccn1` [Example T-384], the IC50 in assay [1] and in assay [2] was no more than 1000 nM in each case.
As for `Cc1scc2c(=O)n(-c3ccc(C(F)(F)F)cc3)c3ccc(C(=O)N[C@@H](C)c4ccccn4)nc3c12` [Example T-385], the concentration for half-maximal inhibition (IC50) in assay [1] and in assay [2] was no more than 1000 nM in each case.
On to `Cc1scc2c1c(=O)n(-c1ccc(C(F)(F)F)cc1)c1ccc(C(=O)N[C@@H](C)c3ccccn3)nc21` [Example T-386], for which the half-inhibitory concentration (IC50) in assay [1] and in assay [2] was no more than 1000 nM in each case.
As for `C[C@H](NC(=O)c1ccc2c(n1)c1c(Cl)scc1c(=O)n2-c1ccc(C(F)(F)F)cc1)c1ccccn1` [Example T-387], the IC50 in assay [1] and in assay [2] was no more than 1000 nM in each case.
For `C[C@H](NC(=O)c1ccc2c(n1)c1csc(Cl)c1c(=O)n2-c1ccc(C(F)(F)F)cc1)c1ccccn1` [Example T-388], the IC50 in assay [1] and in assay [2] was no more than 1000 nM in each case.
On to `C[C@H](NC(=O)c1ccc2c(n1)c1cocc1c(=O)n2-c1ccc(C(F)(F)F)cc1)c1ccccn1` [Example T-389], for which the IC50 in assay [1] and in assay [2] was no more than 1000 nM in each case.
Consider `C[C@H](NC(=O)c1ccc2c(c1)c1ocnc1c(=O)n2-c1ccc(C(F)(F)F)cc1)c1ccccn1` [Example T-391], for which the 50% inhibitory concentration (IC50) in assay [1] and in assay [2] was no more than 1000 nM throughout.
Regarding `C[C@H](NC(=O)c1ccc2c(c1)c1nocc1c(=O)n2-c1ccc(C(F)(F)F)cc1)c1ccccn1` [Example T-395], the half-maximal inhibitory concentration (IC50) in assay [1] and in assay [2] was no more than 1000 nM in each case.
With `C[C@H](NC(=O)c1ccc2c(c1)c1ncoc1c(=O)n2-c1ccc(C(F)(F)F)cc1)c1ccccn1` [Example T-396], the IC50 in assay [1] and in assay [2] was no more than 1000 nM in each case.
On to `C[C@@H](NC(=O)c1ccc2c(c1)c1cscc1c(=O)n2-c1ccc(C(F)(F)F)cc1)c1cccc(N)n1` [Example T-397], for which the half-inhibitory concentration (IC50) in assay [1] and in assay [2] was no more than 1000 nM throughout.
With `C[C@H](NC(=O)c1cnc2c(c1)c1cscc1c(=O)n2-c1ccc(C(F)(F)F)nn1)c1ccccn1` [Example T-398], the IC50 in assay [1] and in assay [2] was 1000 to 5000 nM in each case.
`C[C@H](NC(=O)c1ccc2c(c1)c1ccccc1c(=O)n2-c1ccc(C(F)(F)F)cc1)c1cccc(N)n1` [Example T-399]: the concentration for half-maximal inhibition (IC50) in assay [1] and in assay [2] was no more than 1000 nM throughout.
On to `C[C@H](NC(=O)c1cnc2c(c1)c1ccoc1c(=O)n2-c1ccc(C(F)(F)F)cc1)c1ccccn1` [Example T-400], for which the half-inhibitory concentration (IC50) in assay [1] and in assay [2] was no more than 1000 nM each time.
On to `CCn1cc2c(=O)n(-c3ccc(C(F)(F)F)cc3)c3ncc(C(=O)N[C@@H](C)c4ccccn4)cc3c2n1` [Example T-401], for which the IC50 in assay [1] and in assay [2] was no more than 1000 nM throughout.
As to `C[C@H](NC(=O)c1ccc2c(n1)c1ccccc1c(=O)n2-c1ccc(C(F)(F)F)cc1)c1ccccn1` [Example T-403], the IC50 in assay [1] and in assay [2] was no more than 1000 nM in each case.
